Data published in patent US20250084039A1, “4-SUBSTITUTED AMINOISOQUINOLINE DERIVATIVES” (Purdue Research Foundation, priority 2016, published 2025).
Like-named read-outs stand apart in the source and are kept apart here.

How the values were obtained:
MV4-11 [1] = experiment: Anti-proliferative effects in leukemia panel; format: cell-based; details: for IC50: Homo sapiens, MV4-11, read-out: Anti-proliferative effects in leukemia panel (μM) MV4-11
Procedure: Molm-14 cells were the kind gift of Dr. Mark Levis from Johns Hopkins University. […] Cell lines were grown and maintained according to ATCC recommendations.
(§1) Cell lines were seeded into 96-well plates the afternoon prior to treatment. Approximately 18 hours later, compounds were semi-serially diluted in dimethyl sulfoxide (DMSO) and then growth medium, and added to cells. Plates were incubated for 72 hours prior to addition of Alamar Blue (Life Technologies. Carlsbad, CA). Plates were read after 4 additional hours of incubation at 37° C. using a Bio-Tek Synergy HT plate reader (Bio-Tek, Winooski. VT). Data was analyzed and graphed using GraphPad Prism Software (Graphpad. La Jolla, CA).

MV4-11 [2] = experiment: Activity against AML cell line MV4-11 (CellTiter-Blue, 72 h); format: cell-based; details: Homo sapiens, MV4-11, 72 h; read-out: IC50 against MV4-11/uM
Procedure: Cells were added to 96 well plates at 2000 cells per well for adherent lines and 4000 cells per well for suspension lines and kept in an incubator overnight. The following day the plates were treated with compounds to give rise to the final concentrations of; 100 μM, 10 μM, 5 μM 1 μM, 500 nM, 100 nM, 10 nM, […]. The plates were then stored in the incubator for 72 hours. On the third day the cells were assayed with 20 μL of CellTiter—Blue Cell Viability Assay per well and were incubated for 4 hours. After 4 hours' fluorescence intensity was taken on a plate reader: Excitation: 560/10 Emission: 590/10. IC50 analysis was performed on GraphPad Prism 7.

STAT5 phosphorylation = experiment: Western blot in MV4-11; format: cell-based, human
Procedure: Effect of HSW630-1 on protein expression was tested in the MV4-11 leukemia cell line. Total protein extracts were prepared using RIPA buffer (SIGMA) supplemented with Complete Mini™ protease inhibitor and PHOStop™ phosphatase inhibitors (Roche). Equal amounts of proteins (up to 25 μg) were separated on 4-12% NuPAGE gels in 1×MOPS or 1×MES buffer (Invitrogen) and transferred onto PVDF membranes (Millipore). The membrane was blocked with 5% dry milk in 1×TBS/0.1% Tween 20 (TBST) for at least 1 h at room temperature and incubated with human specific primary antibodies: FLT3, Phospho-FLT3, c-Myc (Cell Signaling Technologies), KRAS (Santa Cruz), or mouse anti-β-actin (SIGMA) overnight at 4° C. The membrane was washed 3 times in TBST and incubated with a horseradish peroxidase-conjugated secondary anti-rabbit or anti-mouse antibody (Cell Signaling Technologies) for 1 h at room temperature. Blots were again washed and the signal was detected with SuperSignal West Femto Chemiluminescent Substrate (Pierce) and exposed to HyBlot CL® autoradiography film (Denville).
To determine if the phosphorylation of FLT3, SRC kinase and downstream effectors or kinases (such as STAT3 [44], STAT5 [45] and p-38 [46]) could be affected by the compounds. […] The level of SRC kinase increased over time (amount at the 48 h time point is greater than at the 6 and 24 h time points). Unfortunately the bands for the phosphorylated SRC kinase are blurred despite repeated attempts to get clearer bands. […] From the above Western analyses, it is confirmed that the proliferation inhibition of MV4-11 is due to the inhibition of FLT3 signaling axis.

FLT3 phosphorylation = experiment: Western blot in MV4-11; format: cell-based, human
Procedure: Total protein extracts were prepared using RIPA buffer (SIGMA) supplemented with Complete Mini™ protease inhibitor and PHOStop™ phosphatase inhibitors (Roche). […] The membrane was blocked with 5% dry milk in 1×TBS/0.1% Tween 20 (TBST) for at least 1 h at room temperature and incubated with human specific primary antibodies: FLT3, Phospho-FLT3, c-Myc (Cell Signaling Technologies), KRAS (Santa Cruz), or mouse anti-β-actin (SIGMA) overnight at 4° C. The membrane was washed 3 times in TBST and incubated with a horseradish peroxidase-conjugated secondary anti-rabbit or anti-mouse antibody (Cell Signaling Technologies) for 1 h at room temperature. Blots were again washed and the signal was detected with SuperSignal West Femto Chemiluminescent Substrate (Pierce) and exposed to HyBlot CL® autoradiography film (Denville).

TRKC = TRKC (Homo sapiens (Human), UniProt Q16288); experiment: Reaction Biology HotSpot kinase assay; format: biochemical; details: 500 nM compound, 100 μM radiolabeled ATP
Procedure: (§2) The Reaction Biology Corporation (www.reactionbiology.com, Malvern, PA) HotSpot assay platform was used to measure kinase/inhibitor interactions exactly as previously described. Kinase and substrate were mixed in a buffer containing 20 mM HEPES pH 7.5, 10 mM MgCl2, 1 mM EGTA, 0.02% Brij35, 0.02 mg/mL BSA, 0.1 mM Na3VO4, 2 mM DTT and 1% DMSO. Single-dose of compounds (500 nM) were then added to each reaction mixture. After 20-minute incubation. ATP (Sigma) and [γ-^33P] ATP (Perkin Elmer) were added at a final total concentration of 100 μM for addition 2 hours at room temperature, followed by spotting onto P81 ion exchange cellulose chromatography paper (Whatman, Inc.). […] Percent remaining kinase activity of a vehicle (DMSO) containing kinase reaction was calculated for each kinase/inhibitor pair using Prism 5 (GraphPad).
as §2, with “1” for “DTT”, “incubation,” for “incubation.”

c-kit = c-kit (Homo sapiens (Human), UniProt P10721); experiment: Reaction Biology HotSpot kinase assay; format: biochemical; details: 500 nM compound, 100 μM radiolabeled ATP
Procedure: as §2
as §2, with “1” for “DTT”, “incubation,” for “incubation.”

HL60 = experiment: Anti-proliferative effects in leukemia panel; format: cell-based; details: Homo sapiens, HL-60
THP-1 = experiment: Anti-proliferative effects in leukemia panel; format: cell-based; details: Homo sapiens
Procedure: (§3) Molm-14 cells were the kind gift of Dr. Mark Levis from Johns Hopkins University. THP-1, MV4-11, K-562 and MRC-5A cells were purchased from ATCC (ATCC, Manassas, VA). All cell lines were grown in 37° C. with 5% CO2 atmosphere with RPMI 1640 (Life technologies, Carlsbad. CA) supplemented with heat-inactivated 10% (V/V) fetal bovine serum. Cell lines were grown and maintained according to ATCC recommendations.
as §1

K-562 = experiment: Anti-proliferative effects in leukemia panel; format: cell-based; details: Homo sapiens, K562
Procedure: as §3, §1

MOLM14 [3] = experiment: Anti-proliferative effects in leukemia panel; format: cell-based; details: for IC50: Homo sapiens, MOLM-14
Procedure: as §3, §1

BTK = BTK (Homo sapiens (Human), UniProt Q06187); experiment: Reaction Biology HotSpot kinase assay; format: biochemical; details: 500 nM compound; read-out: Percentage kinase inhibition BTK
Procedure: as §2
as §2, with “1” for “DTT”, “incubation,” for “incubation.”

HLY-1 = experiment: IC50 proliferation assay (Alamar Blue, 72 h); format: cell-based; details: read-out: IC50 HLY-1 (lymphoma cell line)
Summary of the method: (§4)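 Cells seeded ~18 h before treatment with semi-serial compound dilutions made in DMSO then growth medium. After 72 h exposure, Alamar Blue added and read following 4 h further at 37 °C; IC50 for proliferation inhibition.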

MiaPaca-2 = experiment: IC50 proliferation assay (Alamar Blue, 72 h); format: cell-based; details: Homo sapiens, MIA PaCa-2; read-out: IC50 MiaPaca-2 (pancreatic cell line)
Summary of the method: as §4

MV4-11 [4] = experiment: IC50 proliferation assay (Alamar Blue, 72 h); format: cell-based; details: read-out: IC50 (proliferation inhibition) Cell line - MV4-11
Summary of the method: as §4

FLT3 ITD = FLT3 ITD (Homo sapiens, UniProt P36888); experiment: DiscoverX Kd Elect binding
From the text: (§5) Although the current drugs on the market or in clinical trials are relatively successful in killing the AML leukemia cells, they currently are unable to deal with secondary mutations that occur after TKI treatment, such as FLT3 ([…]).

MCF-7 = experiment: Proliferation inhibition at single concentration (CellTiter-Blue); format: cell-based; details: 1 μM compound
HeLa = experiment: as above; format: cell-based; details: 1 μM compound
MV-4-11 = experiment: as above; format: cell-based; details: 1 μM compound
HCT116 = experiment: as above; format: cell-based; details: 1 μM compound
FLT3 = FLT3 (Homo sapiens (Human), UniProt P36888); experiment: DiscoverX Kd Elect binding
From the text: as §5
HCK is expressed more in human primary leukemic stem cells than in human normal hematopoietic stem cells. […] Other protein kinases such as SYK, BRAF, p38 (p38MAPK), PDGFRα/β, FGFR1, RET, FLT4, Tie2 have also been linked to leukemia. […] (Table 9). The inhibition of the Src-kinase family could be important clinically because these kinases are downstream of FLT3. In the event of FLT3 mutation, the inhibition of the Src-family kinases could still lead to proliferation inhibition.

MOLM14 [5] = experiment: IC50 determination (proliferation assay, CellTiter-Blue); format: cell-based
Procedure: (§6) Cell lines were seeded into 96-well plates the afternoon prior to treatment. Approximately 18 hours later, compounds were diluted in dimethyl sulfoxide (DMSO) and added to cells. Plates were incubated for 72 hours and cells viability determined with CellTiter-Blue Cell Viability Assay (Promega, Madison, WI). Plates were read after 4 additional hours of incubation at 37° C. using plate reader (Bio-Tek, Winooski. VT). Data was analyzed and graphed using GraphPad Prism Software (Graphpad. La Jolla, CA). […]

MV4-11 [6] = experiment: as above; format: cell-based
Procedure: as §6

c-Src = c-Src (Homo sapiens (Human), UniProt P12931); experiment: Reaction Biology HotSpot kinase assay; format: biochemical; details: 500 nM compound
Procedure: as §2
as §2, with “1” for “DTT”, “incubation,” for “incubation.”

FGFR1 = FGFR1 (Homo sapiens (Human), UniProt P11362); experiment: Reaction Biology HotSpot kinase assay; format: biochemical; details: 500 nM compound
Procedure: as §2
as §2, with “1” for “DTT”, “incubation,” for “incubation.”

RET = RET (Homo sapiens (Human), UniProt P07949); experiment: Reaction Biology HotSpot kinase assay; format: biochemical; details: 500 nM compound
Procedure: as §2
as §2, with “1” for “DTT”, “incubation,” for “incubation.”

K562 = experiment: IC50 proliferation assay (Alamar Blue, 72 h); format: cell-based
FLT3 (ITD, F691L) = FLT3 (ITD, F691L) (Homo sapiens, UniProt P36888, F691L/ITD); experiment: DiscoverX Kd Elect binding; details: read-out: Kd FLT3 (ITD, F691L)
NCI H1703 (NSCLC) = experiment: Activity against lung cancer cell line; format: cell-based
MV4-11 [7] = experiment: In vivo efficacy, NSG mice injected with MV4-11; details: 25 mg/kg, three times per week, NSG mice with MV4-11
Procedure: Method: Six week old female NSG mice were injected intravenously with 1×10^6 logarithmically growing MV4-11 cells expressing luciferase (MV4-11). Luciferase expressing leukemia cells were imaged using the IVIS Xenogen system (Perkin Elmer, Waltham MA). On day of imaging, mice are injected IP with 150 mg/kg luciferin (Perkin Elmer, Waltham, MA), anaesthetized and then placed in imaging chamber. Maximal luminescence is recorded and then averaged among each treatment group. Ten days post cell injection, mice were imaged and then sorted into groups so that leukemic burden was similar and dosing started. Mice were dosed either with vehicle (10% DMSO/10% Tween 20/80% saline) or 25 mg/kg of compounds three times per week for the duration of the experiment. Mice were weighed and observed five days per week and imaged once per week.

FLT3 (ITD) = FLT3 (ITD) (Homo sapiens, UniProt P36888, ITD); experiment: DiscoverX Kd Elect binding; details: read-out: Kd FLT3 (ITD)
From the text: as §5

Sequence of c-kit (P10721 26-976): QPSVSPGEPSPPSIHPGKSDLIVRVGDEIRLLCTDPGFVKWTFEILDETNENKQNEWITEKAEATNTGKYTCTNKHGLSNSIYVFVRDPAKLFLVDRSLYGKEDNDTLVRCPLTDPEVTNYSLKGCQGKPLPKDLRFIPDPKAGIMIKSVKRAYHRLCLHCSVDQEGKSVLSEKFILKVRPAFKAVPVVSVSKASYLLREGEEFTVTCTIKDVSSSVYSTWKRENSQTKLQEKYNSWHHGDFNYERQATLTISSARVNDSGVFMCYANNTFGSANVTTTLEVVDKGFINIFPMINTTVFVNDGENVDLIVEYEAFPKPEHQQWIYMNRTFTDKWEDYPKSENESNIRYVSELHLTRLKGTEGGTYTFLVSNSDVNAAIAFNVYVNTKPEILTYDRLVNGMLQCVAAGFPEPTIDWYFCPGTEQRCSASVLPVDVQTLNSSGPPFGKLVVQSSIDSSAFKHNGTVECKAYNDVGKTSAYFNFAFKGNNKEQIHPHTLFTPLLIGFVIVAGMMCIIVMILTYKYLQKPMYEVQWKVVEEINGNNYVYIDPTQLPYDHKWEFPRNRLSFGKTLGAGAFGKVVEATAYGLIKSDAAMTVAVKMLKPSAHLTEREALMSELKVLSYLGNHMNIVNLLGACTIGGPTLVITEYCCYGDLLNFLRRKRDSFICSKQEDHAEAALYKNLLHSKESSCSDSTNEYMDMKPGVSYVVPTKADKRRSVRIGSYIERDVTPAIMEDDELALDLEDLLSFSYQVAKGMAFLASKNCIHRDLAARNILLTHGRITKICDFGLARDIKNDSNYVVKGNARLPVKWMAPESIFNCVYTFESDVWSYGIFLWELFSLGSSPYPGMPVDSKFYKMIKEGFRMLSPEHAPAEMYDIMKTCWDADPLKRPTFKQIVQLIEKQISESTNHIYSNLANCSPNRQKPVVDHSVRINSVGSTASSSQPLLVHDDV
Sequence of FLT3 (ITD, F691L) (P36888 whole entry, looked up, stated change not applied): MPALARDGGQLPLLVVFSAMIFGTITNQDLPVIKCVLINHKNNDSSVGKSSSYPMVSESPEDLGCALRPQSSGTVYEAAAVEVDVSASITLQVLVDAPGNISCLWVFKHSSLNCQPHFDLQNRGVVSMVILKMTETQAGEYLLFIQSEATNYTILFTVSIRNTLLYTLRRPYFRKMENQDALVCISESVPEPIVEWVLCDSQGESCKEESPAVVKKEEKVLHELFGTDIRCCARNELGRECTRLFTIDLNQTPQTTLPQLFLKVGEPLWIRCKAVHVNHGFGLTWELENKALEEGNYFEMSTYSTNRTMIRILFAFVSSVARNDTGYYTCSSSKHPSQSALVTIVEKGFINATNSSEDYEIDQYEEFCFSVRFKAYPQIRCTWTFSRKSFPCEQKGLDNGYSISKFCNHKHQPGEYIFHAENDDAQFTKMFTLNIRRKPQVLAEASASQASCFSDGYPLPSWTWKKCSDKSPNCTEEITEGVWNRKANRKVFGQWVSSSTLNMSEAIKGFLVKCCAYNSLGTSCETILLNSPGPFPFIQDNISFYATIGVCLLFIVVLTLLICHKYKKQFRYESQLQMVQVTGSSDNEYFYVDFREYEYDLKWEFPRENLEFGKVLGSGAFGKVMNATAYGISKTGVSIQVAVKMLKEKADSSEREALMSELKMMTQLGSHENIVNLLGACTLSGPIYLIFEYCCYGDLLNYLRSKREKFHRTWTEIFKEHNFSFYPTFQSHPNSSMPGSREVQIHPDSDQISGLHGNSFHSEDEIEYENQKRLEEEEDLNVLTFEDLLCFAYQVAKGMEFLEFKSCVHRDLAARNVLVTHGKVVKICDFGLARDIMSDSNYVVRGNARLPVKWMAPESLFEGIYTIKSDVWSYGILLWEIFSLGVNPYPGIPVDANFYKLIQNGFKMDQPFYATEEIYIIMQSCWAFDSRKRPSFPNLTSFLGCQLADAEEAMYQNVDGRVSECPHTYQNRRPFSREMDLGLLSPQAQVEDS
Sequence of FLT3 ITD (P36888 whole entry, looked up, change not shown): as the sequence (P36888 whole entry, looked up, stated change not applied) above
Sequence of RET (P07949 29-1114): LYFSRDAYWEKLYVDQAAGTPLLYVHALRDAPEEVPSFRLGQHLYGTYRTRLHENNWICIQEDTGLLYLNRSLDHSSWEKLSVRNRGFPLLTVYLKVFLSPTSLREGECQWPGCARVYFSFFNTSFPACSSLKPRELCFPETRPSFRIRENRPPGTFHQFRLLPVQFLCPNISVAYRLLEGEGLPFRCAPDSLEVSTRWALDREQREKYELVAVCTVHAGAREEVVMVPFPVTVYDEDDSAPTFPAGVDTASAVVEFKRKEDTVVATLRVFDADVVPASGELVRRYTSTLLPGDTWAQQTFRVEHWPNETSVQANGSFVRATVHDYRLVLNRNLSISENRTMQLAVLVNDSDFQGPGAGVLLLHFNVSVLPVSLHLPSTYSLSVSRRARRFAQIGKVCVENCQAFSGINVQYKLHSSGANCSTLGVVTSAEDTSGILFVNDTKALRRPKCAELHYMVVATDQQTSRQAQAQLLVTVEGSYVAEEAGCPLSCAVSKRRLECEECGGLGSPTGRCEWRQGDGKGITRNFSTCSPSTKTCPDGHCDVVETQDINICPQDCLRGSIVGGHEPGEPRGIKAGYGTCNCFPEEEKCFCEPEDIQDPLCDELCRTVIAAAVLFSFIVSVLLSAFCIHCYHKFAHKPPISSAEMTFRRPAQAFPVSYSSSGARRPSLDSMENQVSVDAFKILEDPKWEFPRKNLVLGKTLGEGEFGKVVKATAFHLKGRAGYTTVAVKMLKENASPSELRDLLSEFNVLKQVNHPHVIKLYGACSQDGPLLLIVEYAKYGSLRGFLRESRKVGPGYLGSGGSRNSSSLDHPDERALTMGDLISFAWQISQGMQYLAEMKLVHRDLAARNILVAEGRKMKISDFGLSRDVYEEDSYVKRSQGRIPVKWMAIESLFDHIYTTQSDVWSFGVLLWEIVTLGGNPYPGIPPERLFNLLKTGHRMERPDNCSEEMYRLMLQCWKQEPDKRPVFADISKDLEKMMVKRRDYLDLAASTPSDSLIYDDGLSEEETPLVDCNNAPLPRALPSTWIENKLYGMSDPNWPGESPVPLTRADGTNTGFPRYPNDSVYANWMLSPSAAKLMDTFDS
Sequence of FLT3 (P36888 27-993): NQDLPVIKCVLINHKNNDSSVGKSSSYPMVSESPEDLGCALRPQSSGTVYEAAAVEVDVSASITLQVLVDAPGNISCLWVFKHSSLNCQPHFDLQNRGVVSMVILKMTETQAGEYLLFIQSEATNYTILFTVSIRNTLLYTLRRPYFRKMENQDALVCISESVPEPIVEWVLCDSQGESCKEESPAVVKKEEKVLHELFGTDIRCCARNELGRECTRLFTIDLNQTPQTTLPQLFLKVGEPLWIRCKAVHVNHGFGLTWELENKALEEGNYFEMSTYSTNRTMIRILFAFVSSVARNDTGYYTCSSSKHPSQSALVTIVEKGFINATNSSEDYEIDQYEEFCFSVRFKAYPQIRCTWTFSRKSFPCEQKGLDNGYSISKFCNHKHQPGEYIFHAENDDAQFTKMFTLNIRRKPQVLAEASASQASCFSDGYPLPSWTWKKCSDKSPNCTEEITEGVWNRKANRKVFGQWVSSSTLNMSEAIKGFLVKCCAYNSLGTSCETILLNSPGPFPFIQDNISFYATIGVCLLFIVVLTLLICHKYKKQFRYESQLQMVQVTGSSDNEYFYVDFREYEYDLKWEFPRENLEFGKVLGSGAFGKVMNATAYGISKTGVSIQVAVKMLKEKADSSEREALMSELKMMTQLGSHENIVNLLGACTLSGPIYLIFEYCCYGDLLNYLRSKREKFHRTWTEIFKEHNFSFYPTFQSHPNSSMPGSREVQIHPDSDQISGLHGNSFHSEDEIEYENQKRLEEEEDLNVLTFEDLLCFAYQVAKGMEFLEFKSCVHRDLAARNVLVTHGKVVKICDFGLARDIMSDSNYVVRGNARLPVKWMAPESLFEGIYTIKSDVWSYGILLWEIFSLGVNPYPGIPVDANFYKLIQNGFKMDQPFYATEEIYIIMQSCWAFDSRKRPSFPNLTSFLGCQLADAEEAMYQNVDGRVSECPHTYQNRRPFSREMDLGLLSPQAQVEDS
Sequence of FLT3 (ITD) (P36888 whole entry, looked up, change not shown): as the sequence (P36888 whole entry, looked up, stated change not applied) above
Sequence of TRKC (Q16288 32-839): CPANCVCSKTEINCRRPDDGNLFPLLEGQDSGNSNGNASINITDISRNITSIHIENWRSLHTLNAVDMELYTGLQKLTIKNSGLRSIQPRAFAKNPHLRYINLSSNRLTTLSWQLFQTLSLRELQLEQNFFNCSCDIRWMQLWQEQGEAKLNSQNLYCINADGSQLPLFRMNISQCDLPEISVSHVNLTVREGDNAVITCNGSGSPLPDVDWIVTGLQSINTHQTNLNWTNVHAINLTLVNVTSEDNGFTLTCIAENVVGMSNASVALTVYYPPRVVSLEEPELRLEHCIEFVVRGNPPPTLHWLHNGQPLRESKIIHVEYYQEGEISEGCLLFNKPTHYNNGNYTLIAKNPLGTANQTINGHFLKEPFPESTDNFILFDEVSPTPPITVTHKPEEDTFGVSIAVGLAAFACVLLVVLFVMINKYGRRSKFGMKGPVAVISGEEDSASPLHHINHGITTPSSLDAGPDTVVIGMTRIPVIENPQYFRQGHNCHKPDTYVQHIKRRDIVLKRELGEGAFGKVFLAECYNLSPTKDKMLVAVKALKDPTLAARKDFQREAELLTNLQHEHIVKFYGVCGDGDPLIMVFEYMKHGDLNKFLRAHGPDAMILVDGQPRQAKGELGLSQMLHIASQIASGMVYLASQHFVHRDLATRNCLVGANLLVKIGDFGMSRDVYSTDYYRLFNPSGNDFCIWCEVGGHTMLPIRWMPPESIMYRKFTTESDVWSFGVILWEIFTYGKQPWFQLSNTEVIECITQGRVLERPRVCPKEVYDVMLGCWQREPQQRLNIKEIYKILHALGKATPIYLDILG

SMILES: Nc1ncc2ccc(Cl)cc2c1C#Cc1ccc(C2=NCCN2)cc1 [HSM1651, 6-chloro-4-((4-(4,5-dihydro-1H-imidazol-2-yl)phenyl)ethynyl)isoquinolin-3-amine]
- anti-proliferative activity in words, MV4-11 / AML cell lines (MV4-11 [1]): good inhibitor
- IC50 (MV4-11 [1]): 0.05 ± 0.01 µM
- IC50 (MV4-11 [2]): 0.008 µM
- STAT5 phosphorylation (Western) (STAT5 phosphorylation): reduced
- FLT3 phosphorylation (Western) (FLT3 phosphorylation): reduced
- inhibition at 0.5 µM (TRKC): 64%
- inhibition at 0.5 µM (c-kit): 83%
- IC50 (HL60): 3.05 µM
- IC50 (THP-1): 1.85 µM
- IC50 (K-562): 1.39 µM
- anti-proliferative activity in words, MOLM-14 (MOLM14 [3]): good inhibitor
- IC50 (MOLM14 [3]): 0.11 µM

SMILES: CC1(C)CNC(c2ccc(C#Cc3cc(N)nc4ccccc34)cc2F)=N1 [HSM1856, 4-((4-(4,4-dimethyl-4,5-dihydro-1H-imidazol-2-yl)-3-fluorophenyl)ethynyl)quinolin-2-amine]
- inhibition at 0.5 µM (BTK): 70%
- IC50 (HLY-1): 0.08 µM
- IC50 (MiaPaca-2): 0.4 µM
- IC50 (MV4-11 [4]; Homo sapiens, MV4-11, 72 h): 0.025 µM

SMILES: Cc1ccc(C(=O)NCC(O)CN(C)C)cc1C#Cc1c(N)ncc2ccc(Cl)cc12 (stereo not drawn) [HSN178]
- Kd (FLT3 ITD): 0.45 µM
- Percent inhibition of proliferation MCF-7 (MCF-7): 100%
- Percent inhibition of proliferation HeLa (HeLa): 100%
- Percent inhibition of proliferation MV-4-11 (MV-4-11): 98%
- Percent inhibition of proliferation HCT116 (HCT116): 97%
- Kd (FLT3): 0.053 µM
- IC50 (MOLM14 [5]): 187 ± 5.5 nM
- IC50 (MV4-11 [6]): 144 ± 2.6 nM
- proliferation inhibition in words, MV4-11 / AML (MV4-11 [6]): only moderate inhibitors
- Percentage kinase inhibition c-Src (c-Src): 1%
- Percentage kinase inhibition FGFR1 (FGFR1): 3%
- Percentage kinase inhibition RET (RET): 0%
- IC50 (K562; 72 h, read-out: IC50 (proliferation inhibition) Cell line - K562): 1.44 µM
- IC50 (K562; Table 18, read-out: Inhibition of proliferation of K562 cell lines (CML)): 1.443 ± 0.00021 µM
- IC50 (MV4-11 [4]; 72 h): 0.171 µM

SMILES: Cc1ncc(C(=O)Nc2ccc(CN3CCN(C)CC3)c(C(F)(F)F)c2)cc1C#Cc1c(N)ncc2ccc(F)cc12 [HSN431]
- Kd (FLT3 (ITD, F691L)): 0.057 µM
- Kd (FLT3 ITD): 0.0048 µM
- IC50 (NCI H1703 (NSCLC)): 247 nM
- IC50 (MV4-11 [6]): < 1 nM
- in-vivo efficacy (survival) (MV4-11 [7]): efficacious

SMILES: Cc1ncc(C(=O)Nc2ccc(CN3CCN(C)CC3)c(C(F)(F)F)c2)cc1C#Cc1cnc(N)c2ccccc12 [HSN461, 5-((1-aminoisoquinolin-4-yl)ethynyl)-6-methyl-N-(4-((4-methylpiperazin-1-yl)methyl)-3-(trifluoromethyl)phenyl)nicotinamide]
- Kd (FLT3 (ITD, F691L)): 0.091 µM
- Kd (FLT3 (ITD)): 0.0079 µM
- IC50 (NCI H1703 (NSCLC); Homo sapiens, NCI-H1703): 157 nM
- IC50 (MV4-11 [6]; Homo sapiens, MV4-11): < 1 nM

SMILES: N=C(N)c1ccc(/N=N/c2c(N)ncc3ccc(Br)cc23)cc1 [HSW630-1]
- IC50 (MV4-11 [1]): 0.15 ± 0.01 µM
- inhibition at 0.5 µM (c-kit): 68%
- IC50 (THP-1): 1.2 µM
- IC50 (K-562): 3 µM
- IC50 (MOLM14 [3]): 0.15 ± 0.01 µM
